Patent US11833211B2, “Methods of suppression and treatment of disease comprising administering bicycle peptide ligands specific for EphA2” (BicycleTx Limited, priority 2017, dated 2023)

What was measured:
[1] = molecular target: T1, mouse EphA2 (Mus musculus, UniProt Q03145); type: binding
T1 construct: EphA2 (Ecto)

[2] = molecular target: T2, rat EphA2 (Rattus norvegicus, UniProt D3ZBN3); assay: Fluorescence polarisation competition binding, alternative protocol (Study 2)
T2 construct: polyHis (C); made in house

[3] = molecular target: T3, human EphA2 (Homo sapiens, UniProt P29317); assay: Fluorescence polarisation competition binding assay (Study 1)
T3 construct: EphA2 (Ecto); polyHis (C); purchased R&D systems (or In-house)

[4] = tested on: PC-3 xenograft; assay: Study 8: in vivo efficacy in PC-3 xenograft; parameters: species or system Mus Musculus; details: 15 mg/kg

T2 sequence (D3ZBN3 27-205): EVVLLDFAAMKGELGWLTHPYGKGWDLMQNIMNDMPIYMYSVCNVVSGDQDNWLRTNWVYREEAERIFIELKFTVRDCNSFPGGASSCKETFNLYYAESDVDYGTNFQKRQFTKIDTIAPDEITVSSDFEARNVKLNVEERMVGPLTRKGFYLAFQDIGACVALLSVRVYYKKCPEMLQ
T3 sequence (P29317 24-537 limits assumed): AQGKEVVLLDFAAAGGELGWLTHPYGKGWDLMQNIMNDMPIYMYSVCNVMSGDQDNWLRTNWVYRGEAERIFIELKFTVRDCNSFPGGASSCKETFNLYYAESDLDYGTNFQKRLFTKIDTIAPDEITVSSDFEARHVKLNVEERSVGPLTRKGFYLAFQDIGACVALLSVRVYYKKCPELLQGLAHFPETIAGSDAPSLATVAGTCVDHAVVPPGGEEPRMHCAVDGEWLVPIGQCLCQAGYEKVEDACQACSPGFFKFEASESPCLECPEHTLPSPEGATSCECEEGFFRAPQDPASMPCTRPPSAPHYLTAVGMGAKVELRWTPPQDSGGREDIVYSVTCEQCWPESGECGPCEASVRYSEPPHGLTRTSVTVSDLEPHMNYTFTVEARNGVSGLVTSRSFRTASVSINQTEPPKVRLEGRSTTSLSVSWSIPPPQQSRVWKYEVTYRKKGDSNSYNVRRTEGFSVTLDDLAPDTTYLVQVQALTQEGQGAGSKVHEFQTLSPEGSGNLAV
T1 sequence (Q03145 26-538 limits assumed): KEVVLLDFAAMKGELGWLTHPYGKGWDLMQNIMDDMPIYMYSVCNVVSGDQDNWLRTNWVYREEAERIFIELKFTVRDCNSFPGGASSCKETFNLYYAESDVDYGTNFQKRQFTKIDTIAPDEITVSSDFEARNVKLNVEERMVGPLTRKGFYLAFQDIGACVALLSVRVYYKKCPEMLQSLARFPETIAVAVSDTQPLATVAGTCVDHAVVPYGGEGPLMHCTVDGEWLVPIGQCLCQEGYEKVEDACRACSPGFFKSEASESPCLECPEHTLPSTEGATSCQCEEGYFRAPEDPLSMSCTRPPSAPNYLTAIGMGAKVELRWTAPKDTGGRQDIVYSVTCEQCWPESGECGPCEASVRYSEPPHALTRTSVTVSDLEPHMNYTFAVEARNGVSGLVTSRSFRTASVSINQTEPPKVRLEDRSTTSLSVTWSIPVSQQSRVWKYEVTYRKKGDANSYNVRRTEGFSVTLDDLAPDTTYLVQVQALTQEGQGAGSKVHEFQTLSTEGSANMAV

## (β-Ala)-Sar10-A(HArg)D-Ci(HyP)LVNPLCiiLHP(D-Asp)W(HArg)Ciii [BCY6099]
[1]
  affinity to mouse EphA2 (in words): high affinity
[2]
  affinity to rat EphA2 (in words): high affinity

## COc1cc2cc(c1Cl)N(C)C(=O)C[C@@H](OC(=O)[C@@H](C)N(C)C(=O)CCSSC(C)CCC(=O)NCCC(=O)N(C)CC(=O)N(C)CC(=O)N(C)CC(=O)N(C)CC(=O)N(C)CC(=O)N(C)CC(=O)N(C)CC(=O)N(C)CC(=O)N(C)CC(=O)N(C)CC(=O)N[C@@H](C)C(=O)N[C@@H](CCCCNC(=N)N)C(=O)N[C@@H](CC(=O)O)C(=O)N[C@H]1CSCCC(=O)N3CN4CN(C3)C(=O)CCSC[C@H](NC(=O)[C@H](CC(C)C)NC(=O)[C@@H]3CCCN3C(=O)[C@H](CC(N)=O)NC(=O)[C@H](C(C)C)NC(=O)[C@H](CC(C)C)NC(=O)[C@@H]3C[C@@H](O)CN3C1=O)C(=O)N[C@@H](CC(C)C)C(=O)N[C@@H](Cc1c[nH]cn1)C(=O)N1CCC[C@H]1C(=O)N[C@H](CC(=O)O)C(=O)N[C@@H](Cc1c[nH]c3ccccc13)C(=O)N[C@@H](CCCCNC(=N)N)C(=O)N[C@H](C(N)=O)CSCCC4=O)[C@@]1(C)O[C@@H]1[C@@H](C)[C@H]1C[C@](O)(NC(=O)O1)C(OC)/C=C/C=C(\C)C2 (stereo partly drawn) [BCY6028]
[3]
  competition binding in the EphA2 competition binding assay (in words): excellent competition binding

## CC(=O)O[C@@]12CO[C@@H]1C[C@H](O)[C@@]1(C)C(=O)[C@H](O)C3=C(C)[C@@H](OC(=O)[C@H](O)[C@@H](NC(=O)OC(C)(C)C)c4ccccc4)C[C@@](O)([C@@H](OC(=O)c4ccccc4)[C@H]21)C3(C)C [Docetaxel]
[4]; after the first dosing
  body weight: severe animal body weight loss
[4]; qw
  anti-tumor activity (in words): significant anti-tumor activity
  tumor relapse after ceasing the treatment: obvious tumor relapse
